Test results as given in PMC5118709, “Identification of Polo-like kinase 1 interaction inhibitors using a novel cell-based assay” (Scientific Reports, 2016).
“And” between values parts separate entries of the source, which are not always exact repeats. Equal values may be shown once. Values belong to the compound of their own block, whether it stands above or below them.

Key:
Plk1-Map interaction [1] = biological target: T1, Plk1-Map interaction (Homo sapiens, UniProt P53350); test: BRET Plk1-Map, stable HEK293T Plk1-Luc/GFP-Map cell line; assay type: cell-based; design: cDNAs for the human full length Plk1; expressed in transfected cells; settings: for Primary screen Plk1-Map (stable) % Inihibition / Primary screen Plk1-Map (stable) % Quench RLuc: 10-25 μM, 2 h; for Confirmation Plk1-Map (stable) % Inihibition / Confirmation Plk1-Map (stable) % Quench RLuc: confirmation screen
Text: To develop a cell-based assay for the identification of Plk1 interaction inhibitors, we used Bioluminescence Resonance Energy Transfer (BRET)[42][43]. The assay monitors the interaction in HEK293T cells between Plk1 and Map205, a protein that we previously identified as an interactor of Drosophila Polo (Plk1 ortholog) on its PBD[44]. Although no ortholog of Drosophila Map205 has been found in vertebrates, this protein robustly interacts with vertebrate Plk1. […] Importantly, crystallography with zebrafish Plk1 has recently shown that Map205 nevertheless docks in the canonical phosphopeptide binding site of the PBD, with the natural phospho-mimetic Glu314 residue (Fig. 1A)[45]. In our assay, human Plk1 and a fragment of Drosophila Map205 (Map205_254-416 = Map) are respectively fused to Renilla luciferase II (Luc) and GFP10 (GFP), giving rise to energy transfer when the proteins are in close proximity (Fig. 1B). […] All combinations of Plk1 and Map tagged with Luc and GFP were tested (Supplementary Fig. S1). The Plk1-Luc/GFP-Map combination was selected because it yielded the highest BRET dynamic window. We then generated clonal stable cell lines co-expressing these two fusion proteins. These cell lines behaved very similarly to each other in BRET, and we selected one line that gave a high and reproducible BRET signal, with a Z′ score of 0.78, indicative of a robust assay for the purpose of a chemical screen (Supplementary Fig. S1).
(§1) We used our cell-based assay to screen a library of 112 983 compounds available in-house at IRIC’s High-Throughput Screening (HTS) platform (see Materials & Methods). Compounds were tested on cells in 384-well plates at concentrations between 10 μM and 25 μM, depending on their concentration in the original stocks solutions. BRET readings were taken 2 hours after treatment. Results obtained show a tight, close to normal distribution centered around zero inhibition relative to DMSO-treated controls (Fig. 1D). Compounds inducing at least 30% BRET inhibition were selected. From these, auto-fluorescent compounds and those that induced more than 90% reduction in RLucII luminescence were removed, leaving 800 primary hits, that we then re-tested using the same assay. In parallel, we tested these compounds in a control BRET assay for an unrelated pair of interacting proteins (BRAF-CRAF[46]) to exclude false-positive compounds that could reduce the BRET signal by interfering with light or by modifying the activity of GFP or Luc.
For BRET on transiently transfected cells, 48 hours after the transfection, medium was removed, cells were washed twice with PBS, and then Tyrode solution (140 mM NaCl, 2.7 mM KCl, 12 mM NaHCO3, 5.6 mM D-glucose, 0.49 mM MgCl2, 0.37 mM NaH2PO4, 25 mM HEPES, pH 7.4, where 1 mM CaCl2 was freshly added) was added to the cells. Total fluorescence was first measured using a FlexStation II microplate reader (Molecular Devices), where the GFP10 was excited at 400 nm and read at 510 nm. Then, cells were treated for 5 minutes with 2.5 μM coelenterazine 400a (Gold Technology) before reading BRET2 using the Mithras LB940 microplate reader (Berthold Technologies). BRET2 signal corresponds to the light emitted by the GFP10 acceptor constructs (515 nm ± 20 nm) divided by the light emitted by the RlucII donor constructs (400 nm ± 70 nm). Net BRET2 was calculated by subtracting the background BRET ratio of the RLucII plasmid alone from the BRET ratio obtained by the two BRET partners. The Net BRET2 was plotted according to the GFP10/RLucII ratio, which was obtained by dividing the total fluorescence by the RLucII emission.
For the high throughput chemical screen, cells were amplified and frozen as multiple 1 ml aliquots containing 25 millions of stable HEK293T Plk1-Luc/GFP-Map cells to ensure that cells at the same passage number are used during the screen. […] Five days later, cells were counted and re-suspended in Tyrode solution. […]

HeLa cells [2] = test: mitotic index assay (phospho-Histone H3) in HeLa cells; assay type: cell-based; settings: 10-25 μM, 7 h
CRAF-BRAF = biological target: T2, CRAF-BRAF (Homo sapiens, UniProt P04049+P15056); test: control BRET CRAF-BRAF (transient); assay type: cell-based; settings: for Primary screen CRAF-BRAF (transient) % Inihibition / Primary screen CRAF-BRAF (transient) % Quench RLuc: 10-25 μM; for Confirmation CRAF-BRAF (transient) % Inihibition / Confirmation CRAF-BRAF (transient) % Quench RLuc: confirmation screen
T2 construct: expressed in transfected cells; host or cells: HEK293T, transient transfection with PEI
Procedure: as §1
(§2) For the confirmation screen, the same procedure as for the primary screen was followed, except that HEK293T cells were also seeded at 6.25 millions of cells per simple CellStack on day 1 for transient transfections. These cells were transfected on day 3 with Luc-Map (5 μg) and Plk1-GFP (25 μg) pIRESHyg3 plasmids using polyethylenimine (PEI). To identify false-positives compounds, Luc-CRAF (4 μg) and GFP-BRAF (20 μg) plasmids were also transfected with PEI following the published procedure.

Plk1-Map interaction [3] = biological target: T1, Plk1-Map interaction; test: BRET Plk1-Map, transient Luc-Map/Plk1-GFP in HEK293T; assay type: cell-based; design: cDNAs for the human full length Plk1; expressed in transfected cells; settings: confirmation screen
Procedure: as §2

GST-PBD367-603 of Plk1 = GST-PBD367-603 of Plk1 (Homo sapiens, UniProt P53350); test: fluorescence polarization assay PBD-phosphopeptide
Procedure: In this assay, an optimal phosphopeptide for PBD binding is coupled with a FITC fluorophore and its binding to purified recombinant PBD of Plk1 is monitored by the change in polarization of incident light.
The FP buffer was composed of 10 mM Tris pH 8.0, 50 mM NaCl, 1 mM EDTA, 20% glycerol and 0.1% NP-40. The peptide (final concentration 10 nM) was always added to the wells of non-binding, black, 384-well plates, 1 hour after the addition of the protein with the buffer (+/− treatment, 10% DMSO). […] EC65s were used to perform the competitive assays with the non-labeled peptides and with the inhibitors. FP Inhibition was calculated with the formula: 100 − [((mPsample − mPfree peptide)\(mPDMSO − mPfree peptide)) × 100]. […] (Map peptide), and corresponding non-labeled peptides are identical but without FITC in N-terminal. […] Inhibition curves were fitted with GraphPad (Prism software).

Plk1-Map interaction [4] = biological target: T1, Plk1-Map interaction; test: LUMIER co-immunoprecipitation assay Plk1-Map; settings: for Average-Beads (mean luminescence) / Co-IP Values relative to top in plate column = 1 / Luminescence on beads, duplicate wells: 10-25 μM, 2 h; for Relative Luminescence Unit: mean divided by maximum mean of the compounds; for Luminescence on beads, duplicate wells: raw data
Procedure: After cell lysis, GFP-Plk1 was immunoprecipitated and co-purified Map-Luc was measured by luminescence following addition of the luciferase substrate, coelenterazine.
Half a million stably transfected Map205-RLucII/GFP10-Plk1 cells in Tyrode solution were seeded per well in a 96-well plate and allowed to settle for 30 min at 37 °C. […] Plates were then centrifuged at 4 °C at 3000 rpm for 5 minutes to pellet cells. Cells were then lysed with the IP buffer (20 mM Tris pH 7.5, 150 mM NaCl, 2 mM EGTA, 0.5% NP-40, 1 mM DTT, PMSF, aprotinin and leupeptin) and incubated on ice for 20 minutes. Plates were centrifuged again at 4 °C at 3400 rpm for 10 minutes, and the soluble fraction was transferred into a new 96-well plate. Note that 10 μl of this fraction was transferred in white 96-well plates from which the luminescence was read as a measure of the input amount of cell lysate for the co-IP. GFP-Plk1 was immunoprecipitated by adding 0.35 μl of anti-GFP antibody (Invitrogen). Plates were sealed and incubated on a rotator at 4 °C for 30 minutes. Then, 4 μl of pre-washed protein A magnetic beads (Invitrogen) were added to each well. Plates were sealed and incubated at 4 °C for 1h30. The extracts + beads were then transferred in a 96-well PCR plates and beads were washed 3 times with the IP buffer using a magnetic 96-well rack. The fourth wash was done in Tyrode solution, then beads were re-suspended with it and transferred in a white 96-well plate. […] Tyrode was also added to the plates containing the input fraction, then Coelenterazine h was added to the wells, and enhanced luminescence was read as described above.

HeLa cells [5] = test: mitotic defect phenotypes by immunofluorescence; assay type: cell-based; settings: 10 nM, 7 h
Procedure: HeLa cells were treated with these compounds along with the known PBD inhibitors PPG, TQ, Poloxin and the KD inhibitor BI2536 as controls, and then stained against α-Tubulin, pericentrin (a centrosome marker) and DNA (Fig. 2D). In all cases, there was a marked increase in the frequency of disorganized spindles compared with DMSO-treated control cells. This is expected as Plk1 plays multiple roles in spindle assembly and maintenance. […] Cpd 69, an analog of compound 122, induced a similar phenotype at lower concentrations (data not shown). This phenotype was not seen after treatment with BI2536.
For the mitotic defect phenotypes, 25 200 HeLa cells were plated on poly-L-lysine coated round cover slips in 24-well plates. The day after, cells were treated for 7 hours, and then washed with PHEM buffer at 37 °C before fixation in PHEM buffer containing 4% formaldehyde for 20 minutes at 37 °C. Cells were washed three times with TBS-tween 0.1% and plate was kept overnight at 4 °C. Next steps were followed as previously described except that coverslips were incubated in a dark wet chamber with antibodies. Anti-pericentrin (diluted 1:1000; Abcam), anti-α-tubulin DM1A (diluted 1:500; Sigma-Aldrich), Alexa Fluor 488 anti-rabbit and Texas-Red anti-mouse (diluted 1:200; Invitrogen) were used. Coverslips were mounted on slide using Vectashield media containing DAPI (Vector Laboratories).
Images shown in Fig. 2D were acquired on an AxioImager microscope (Carl Zeiss) with a 100x oil objective (NA 1.4 DICIII) and an AxioCam HRM camera (Carl Zeiss) using AxioVision software (Carl Zeiss).

Sequence of GST-PBD367-603 of Plk1 (P53350 367-603): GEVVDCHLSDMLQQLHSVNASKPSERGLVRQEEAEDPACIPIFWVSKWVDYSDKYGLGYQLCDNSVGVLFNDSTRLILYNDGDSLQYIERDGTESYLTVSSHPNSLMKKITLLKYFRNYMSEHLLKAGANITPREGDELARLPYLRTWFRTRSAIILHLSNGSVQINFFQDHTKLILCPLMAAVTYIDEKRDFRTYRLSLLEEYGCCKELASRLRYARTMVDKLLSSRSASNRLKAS
T2 sequence (P04049 whole entry): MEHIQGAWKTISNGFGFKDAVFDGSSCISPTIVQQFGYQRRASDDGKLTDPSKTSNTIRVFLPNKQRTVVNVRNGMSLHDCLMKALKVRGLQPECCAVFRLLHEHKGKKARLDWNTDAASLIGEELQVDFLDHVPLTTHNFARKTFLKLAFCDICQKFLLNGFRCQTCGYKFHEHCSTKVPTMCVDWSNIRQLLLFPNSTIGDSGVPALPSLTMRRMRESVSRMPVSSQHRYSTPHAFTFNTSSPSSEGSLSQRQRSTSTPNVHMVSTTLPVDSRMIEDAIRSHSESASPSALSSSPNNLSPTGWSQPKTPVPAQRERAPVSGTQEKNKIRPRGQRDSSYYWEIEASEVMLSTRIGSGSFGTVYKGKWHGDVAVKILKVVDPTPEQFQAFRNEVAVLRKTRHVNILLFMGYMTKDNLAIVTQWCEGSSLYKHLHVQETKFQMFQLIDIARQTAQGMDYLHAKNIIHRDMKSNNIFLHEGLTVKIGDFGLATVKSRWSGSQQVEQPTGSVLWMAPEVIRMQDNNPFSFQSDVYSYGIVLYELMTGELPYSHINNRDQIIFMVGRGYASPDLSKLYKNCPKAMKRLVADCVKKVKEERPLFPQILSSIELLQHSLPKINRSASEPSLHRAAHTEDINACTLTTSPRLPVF
T2 sequence (P15056 whole entry): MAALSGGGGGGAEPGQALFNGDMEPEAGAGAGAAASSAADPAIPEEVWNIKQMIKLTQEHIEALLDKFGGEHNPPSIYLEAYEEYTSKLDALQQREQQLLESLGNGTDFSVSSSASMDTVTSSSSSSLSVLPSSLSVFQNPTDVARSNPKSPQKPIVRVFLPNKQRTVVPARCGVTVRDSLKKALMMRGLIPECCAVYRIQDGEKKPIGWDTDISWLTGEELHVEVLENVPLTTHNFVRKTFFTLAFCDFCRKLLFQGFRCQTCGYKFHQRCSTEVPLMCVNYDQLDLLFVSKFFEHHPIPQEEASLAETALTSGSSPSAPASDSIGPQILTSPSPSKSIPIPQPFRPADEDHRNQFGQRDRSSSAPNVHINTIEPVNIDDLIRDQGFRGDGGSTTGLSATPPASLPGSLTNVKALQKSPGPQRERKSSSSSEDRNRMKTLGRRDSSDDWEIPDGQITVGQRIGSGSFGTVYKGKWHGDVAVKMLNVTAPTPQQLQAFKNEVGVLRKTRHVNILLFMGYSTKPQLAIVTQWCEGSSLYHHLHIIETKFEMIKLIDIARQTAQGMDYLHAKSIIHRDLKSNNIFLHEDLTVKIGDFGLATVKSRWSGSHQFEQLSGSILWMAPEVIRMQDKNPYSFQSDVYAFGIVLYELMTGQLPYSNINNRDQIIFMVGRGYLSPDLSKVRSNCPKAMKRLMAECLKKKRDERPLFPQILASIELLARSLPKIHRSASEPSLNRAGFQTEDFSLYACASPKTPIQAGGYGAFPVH
T1 sequence (P53350 whole entry): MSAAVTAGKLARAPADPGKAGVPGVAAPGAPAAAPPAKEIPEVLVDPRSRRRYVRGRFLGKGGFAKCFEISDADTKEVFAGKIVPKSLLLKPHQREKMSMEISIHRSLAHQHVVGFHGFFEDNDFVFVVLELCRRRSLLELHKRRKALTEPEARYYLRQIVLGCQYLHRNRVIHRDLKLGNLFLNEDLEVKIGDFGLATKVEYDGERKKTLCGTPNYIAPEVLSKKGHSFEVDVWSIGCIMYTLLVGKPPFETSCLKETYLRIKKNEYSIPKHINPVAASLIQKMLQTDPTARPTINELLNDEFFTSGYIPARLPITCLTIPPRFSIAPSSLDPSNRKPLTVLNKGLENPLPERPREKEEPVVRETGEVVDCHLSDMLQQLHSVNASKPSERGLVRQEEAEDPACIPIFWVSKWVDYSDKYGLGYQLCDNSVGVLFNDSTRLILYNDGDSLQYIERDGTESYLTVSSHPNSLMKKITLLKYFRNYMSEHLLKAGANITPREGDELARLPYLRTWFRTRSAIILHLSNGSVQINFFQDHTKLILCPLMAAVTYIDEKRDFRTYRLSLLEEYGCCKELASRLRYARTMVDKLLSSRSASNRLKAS

Structure (SMILES): N#Cc1cccnc1S(=O)(=O)CCOC(=O)c1cccc(Cl)c1 [Cpd 15]
- Primary screen Plk1-Map (stable) % Inihibition (Plk1-Map interaction [1]): 67.91%
- Primary screen Plk1-Map (stable) % Quench RLuc (Plk1-Map interaction [1]): 84.93%
- Confirmation Plk1-Map (stable) % Inihibition (Plk1-Map interaction [1]): 41.55%
- Confirmation Plk1-Map (stable) % Quench RLuc (Plk1-Map interaction [1]): 78.03%
- Mitotic index (%) (HeLa cells [2]): 0.81%
- Primary screen CRAF-BRAF (transient) % Inihibition (CRAF-BRAF): 31.50%
- Primary screen CRAF-BRAF (transient) % Quench RLuc (CRAF-BRAF): 81.13%
- Confirmation CRAF-BRAF (transient) % Inihibition (CRAF-BRAF): -4.59%
- Confirmation CRAF-BRAF (transient) % Quench RLuc (CRAF-BRAF): 86.14%
- Confirmation Plk1-Map (transient) % Inihibition (Plk1-Map interaction [3]): 53.01%
- Confirmation Plk1-Map (transient) % Quench RLuc (Plk1-Map interaction [3]): 72.97%
- IC50 (GST-PBD367-603 of Plk1; FP - IC50 (μM), Table S3): 5.7 ± 2.8 µM
- IC50 (GST-PBD367-603 of Plk1; IC50 in FP, GST-PBD367-603 38 nM, 1 h pre-incubation, FITC-phosphopeptide 10 nM, Fig. 4C): 6 µM
- Average-Beads (mean luminescence) (Plk1-Map interaction [4]): 18,942
- Co-IP Values relative to top in plate column = 1 (Plk1-Map interaction [4]): 0.017
- Relative Luminescence Unit (Plk1-Map interaction [4]): 0.017
- Luminescence on beads, duplicate wells (Plk1-Map interaction [4]): 18,060 and 19,824

Structure (SMILES): COc1ccc(-c2oc3ccccc3c(=O)c2OS(=O)(=O)c2ccccc2)cc1 [Cpd 46]
- Primary screen Plk1-Map (stable) % Inihibition (Plk1-Map interaction [1]): 53.18%
- Primary screen Plk1-Map (stable) % Quench RLuc (Plk1-Map interaction [1]): 82.37%
- Confirmation Plk1-Map (stable) % Inihibition (Plk1-Map interaction [1]): 30.35%
- Confirmation Plk1-Map (stable) % Quench RLuc (Plk1-Map interaction [1]): 91.04%
- Mitotic index (%) (HeLa cells [2]): 29.44%
- Primary screen CRAF-BRAF (transient) % Inihibition (CRAF-BRAF): 16.40%
- Primary screen CRAF-BRAF (transient) % Quench RLuc (CRAF-BRAF): 63.54%
- Confirmation CRAF-BRAF (transient) % Inihibition (CRAF-BRAF): 19.45%
- Confirmation CRAF-BRAF (transient) % Quench RLuc (CRAF-BRAF): 66.12%
- Confirmation Plk1-Map (transient) % Inihibition (Plk1-Map interaction [3]): -29.25%
- Confirmation Plk1-Map (transient) % Quench RLuc (Plk1-Map interaction [3]): 72.57%
- Average-Beads (mean luminescence) (Plk1-Map interaction [4]): 601,974
- Co-IP Values relative to top in plate column = 1 (Plk1-Map interaction [4]): 0.219
- Relative Luminescence Unit (Plk1-Map interaction [4]): 0.219
- Luminescence on beads, duplicate wells (Plk1-Map interaction [4]): 584,340 and 619,608

Structure (SMILES): CC[C@@H]1C(=O)N(C)c2cnc(Nc3ccc(C(=O)NC4CCN(C)CC4)cc3OC)nc2N1C1CCCC1 [BI2536]
- 2 > pericentrin foci (percentage of cells) (HeLa cells [5]): 3 ± 2%
- Disorganized spindles (percentage of cells) (HeLa cells [5]): 55 ± 8%

The remaining lines, values ahead:

- FP - IC50 (μM) (GST-PBD367-603 of Plk1; Table S3): No inhibition
Structure (SMILES): Cc1cc(C(F)(F)F)cc(SCCOC(=O)c2cc(Cl)cc(Cl)c2)n1 [Cpd 155]

- FP - IC50 (μM) (GST-PBD367-603 of Plk1; Table S3): No inhibition
Structure (SMILES): O=C(CS(=O)(=O)c1ccc(C(F)(F)F)cn1)NNC(=O)c1ccccc1 [Cpd 144]

- FP - IC50 (μM) (GST-PBD367-603 of Plk1; Table S3): No inhibition
Structure (SMILES): Cc1c(Cl)cccc1NC(=O)CCS(=O)(=O)c1ccccc1 [Cpd 140]

- FP - IC50 (μM) (GST-PBD367-603 of Plk1; Table S3): No inhibition
Structure (SMILES): Cc1ccc(S(=O)(=O)CCC(=O)OCc2ccc(Cl)c(Cl)c2)cc1 [Cpd 138]
